Experimental data as given in publication PMC6008465 (British Journal of Cancer, 2018).
Marks after values point to notes of the source that are not given here.

What was measured:
[1] = tested on: advanced solid tumours; experiment: Part A tumour response (RECIST 1.0); type: in vivo, human
Experimental: The primary objectives of this phase 1 study were to evaluate the safety, tolerability, and MTD of once-weekly (Schedule I) and twice-weekly (Schedule II) dosing. […] Toxicity was managed by dose interruption, reduction, and/or discontinuation. Only Cycle 1 adverse events (AEs) were evaluable as DLTs. […] All ongoing patients could continue at 320 mg/m^2, regardless of initial starting dose.
Efficacy was assessed by tumour response determined by investigator review of computed tomography/magnetic resonance imaging scans using Response Evaluation Criteria in Solid tumours version 1.0 (RECIST).[17]

[2] = tested on: MEK1; settings: preclinical models; cited from earlier work
[3] = Part A pharmacokinetics (plasma and urine, noncompartmental analysis); type: in vivo, human
Experimental: In Part A, blood was collected on Cycle 1, Days 1 and 15 at specified intervals prior to, during, and postinfusion (5 min–8 h), and on Days 2, 3, 16, and 17 (24 and 48 h postinfusion). Urine was collected on Cycle 1, Day 1 preinfusion, at 0–8 h, and 8–24 h. In Part B, blood was collected on Cycle 1, Day 1, prior to, during, and at 1–24 h postinfusion. Pharmacokinetic parameters were calculated using noncompartmental analysis.

## CCNc1cc(O)c2c(c1)/C=C/C[C@H](O)[C@H](O)C(=O)/C=C\[C@@H](C)[C@H](C)OC2=O [E6201, (3S,4R,5Z,8S,9S,11E)-14-(ethylamino)-8,9,16-trihydroxy-3,4-dimethyl-3,4,9,19-tetrahydro-1H-2-benzoxacyclotetradecine-1,7 (8H)-dione]
[1]; 20 mg/m^2 (n=4)
  Best overall response: Complete response (CR): 0 n (%)
  Best overall response: Not evaluable (NE): 0 n (%)
  Best overall response: Partial response (PR): 0 n (%)
  Best overall response: Progressive disease (PD): 3 (75.0) n (%)
  Disease control rate (CR+PR+SD): 1 (25.0) n (%)
  Overall response rate (CR+PR): 0 n (%)
[1]; 40 mg/m^2 (n=3)
  Best overall response: Complete response (CR): 0 n (%)
  Best overall response: Not evaluable (NE): 0 n (%)
  Best overall response: Partial response (PR): 0 n (%)
  Best overall response: Progressive disease (PD): 1 (33.3) n (%)
  Disease control rate (CR+PR+SD): 2 (66.7) n (%)
  Overall response rate (CR+PR): 0 n (%)
[1]; 40 mg/m^2, patient with biliary duct cancer (BRAF-WT)
  Duration of SD: 4 cycles
[1]; 40 mg/m^2, patient with colon cancer (BRAF-WT)
  Duration of SD: 6 cycles
[1]; 80 mg/m^2 (n=3)
  Best overall response: Complete response (CR): 0 n (%)
  Best overall response: Not evaluable (NE): 0 n (%)
  Best overall response: Partial response (PR): 0 n (%)
  Best overall response: Progressive disease (PD): 2 (66.7) n (%)
  Disease control rate (CR+PR+SD): 1 (33.3) n (%)
  Overall response rate (CR+PR): 0 n (%)
[1]; 80 mg/m^2, patient with BRAF-WT uveal melanoma
  Duration of SD: 15 cycles
[1]; 160 mg/m^2 (n=3)
  Best overall response: Complete response (CR): 0 n (%)
  Best overall response: Not evaluable (NE): 1 (33.3) n (%)
  Best overall response: Partial response (PR): 0 n (%)
  Best overall response: Progressive disease (PD): 2 (66.7) n (%)
  Disease control rate (CR+PR+SD): 0 n (%)
  Overall response rate (CR+PR): 0 n (%)
[1]; 320 mg/m^2 (n=7)
  Best overall response: Complete response (CR): 0 n (%)
  Best overall response: Not evaluable (NE): 1 (14.3) n (%)
  Best overall response: Partial response (PR): 0 n (%)
  Best overall response: Progressive disease (PD): 4 (57.1) n (%)
  Disease control rate (CR+PR+SD): 1 (14.3) n (%)
  Overall response rate (CR+PR): 0 n (%)
[1]; 400 mg/m^2 (n=1)
  Best overall response: Complete response (CR): 0 n (%)
  Best overall response: Not evaluable (NE): 0 n (%)
  Best overall response: Partial response (PR): 0 n (%)
  Best overall response: Progressive disease (PD): 0 n (%)
  Disease control rate (CR+PR+SD): 1 (100) n (%)
  Overall response rate (CR+PR): 0 n (%)
[1]; 400 mg/m^2, patient with gastric carcinoid (BRAF status unknown)
  Duration of SD: 4 cycles
[1]; 480 mg/m^2 (n=4)
  Best overall response: Complete response (CR): 0 n (%)
  Best overall response: Not evaluable (NE): 0 n (%)
  Best overall response: Partial response (PR): 1 (25.0)^a n (%)
  Best overall response: Progressive disease (PD): 0 n (%)
  Disease control rate (CR+PR+SD): 3 (75.0) n (%)
  Overall response rate (CR+PR): 1 (25.0) n (%)
[1]; 480 mg/m^2, patient with papillary thyroid cancer (BRAF-WT)
  Duration of SD: 4 cycles
[1]; BRAF-mutated papillary thyroid cancer patient, 480 mg/m^2
  Duration of partial response: 4 cycles
[1]; Total (N=25)
  Best overall response: Complete response (CR): 0 n (%)
  Best overall response: Not evaluable (NE): 2 (8.0) n (%)
  Best overall response: Partial response (PR): 1 (4.0) n (%)
  Best overall response: Progressive disease (PD): 12 (48.0) n (%)
  Disease control rate (CR+PR+SD): 9 (36.0) n (%)
  Overall response rate (CR+PR): 1 (4.0) n (%)
[1]; V600E BRAF-mutated papillary thyroid cancer, 480 mg/m^2 qw
  Number of partial responses (PR): One
[1]; five patients
  Patients with SD for ≥4 cycles (3.7 months): 20.0%
[2]
  Time after dosing at which MEK1 inhibition occurred: 8 h
  Time postdose for which MEK1 inhibition was sustained: 72 h
[3]; 24-hour collection interval
  Fraction of E6201 excreted in the urine: ≤ 0.21%
[3]; Cycle 1 Day 1, 20 mg/m^2 (n=4)
  AUC(0-t), mean (%CV): 1650 (218) ng·h/mL
  CLR (renal clearance), mean (%CV): 10.0 (188) mL/h
  Cmax, mean (%CV): 552 (50) ng/mL
  Tmax, median (range): 0.5 (0.25–0.5) h
  fe (fraction of drug excreted in urine), mean (%CV): 0.0125 (42) %
[3]; Cycle 1 Day 1, 20 mg/m^2, n=2
  t½, mean: 1.96^b (--) h
[3]; Cycle 1 Day 1, 20 mg/m^2, n=2, %CV 2
  CL, mean (%CV): 110^b (2) L/h
[3]; Cycle 1 Day 1, 20 mg/m^2, n=2, %CV 28
  Vss, mean (%CV): 135^b (28) L
[3]; Cycle 1 Day 1, 40 mg/m^2 (n=3)
  AUC(0-t), mean (%CV): 2410 (201) ng·h/mL
  CLR (renal clearance), mean (%CV): 1.65 (--) mL/h
  Cmax, mean (%CV): 870 (70) ng/mL
  Tmax, median (range): 0.5 (0.5–0.5) h
  fe (fraction of drug excreted in urine), mean (%CV): 0 (--) %
[3]; Cycle 1 Day 1, 40 mg/m^2, n=2
  t½, mean: 2.70^b (--) h
[3]; Cycle 1 Day 1, 40 mg/m^2, n=2, %CV 21
  Vss, mean (%CV): 164^b (21) L
[3]; Cycle 1 Day 1, 40 mg/m^2, n=2, %CV 25
  CL, mean (%CV): 103^b (25) L/h
[3]; Cycle 1 Day 1, 80 mg/m^2 (n=3)
  AUC(0-t), mean (%CV): 2520 (63) ng·h/mL
  CL, mean (%CV): 68.7 (60) L/h
  CLR (renal clearance), mean (%CV): 28.9 (54) mL/h
  Cmax, mean (%CV): 3350 (149) ng/mL
